Values of other authors, collected in patent publication US11077045B2, “Blood microperfusion to skin by Shilajit” (Natreon, Inc., priority 2018, dated 2021).

Tests used:
[1] = low-dose administration, rats
[2] = transdermal preparation, subjects with diabetes

N=C(N)NCCC[C@H](N)C(=O)O [L-arginine]
microperfusion of rat skin [1]: increase microperfusion
blood flow in feet [2]: improved
